The results in this text go back to US11459324B2, “O-glycoprotein-2-acetamido-2-deoxy-3-D-glycopyranosidase inhibitors” (BIOGEN MA INC., priority 2018, dated 2022).

For orientation: IC50 means the concentration that inhibits the measured activity by half.

The assay deals with T1, Recombinant full length human OGA enzyme (Homo sapiens, UniProt O60502).
T1 construct: Recombinant full length human OGA enzyme was purchased from Origene; purchased Origene
T1 sequence (O60502 1-916): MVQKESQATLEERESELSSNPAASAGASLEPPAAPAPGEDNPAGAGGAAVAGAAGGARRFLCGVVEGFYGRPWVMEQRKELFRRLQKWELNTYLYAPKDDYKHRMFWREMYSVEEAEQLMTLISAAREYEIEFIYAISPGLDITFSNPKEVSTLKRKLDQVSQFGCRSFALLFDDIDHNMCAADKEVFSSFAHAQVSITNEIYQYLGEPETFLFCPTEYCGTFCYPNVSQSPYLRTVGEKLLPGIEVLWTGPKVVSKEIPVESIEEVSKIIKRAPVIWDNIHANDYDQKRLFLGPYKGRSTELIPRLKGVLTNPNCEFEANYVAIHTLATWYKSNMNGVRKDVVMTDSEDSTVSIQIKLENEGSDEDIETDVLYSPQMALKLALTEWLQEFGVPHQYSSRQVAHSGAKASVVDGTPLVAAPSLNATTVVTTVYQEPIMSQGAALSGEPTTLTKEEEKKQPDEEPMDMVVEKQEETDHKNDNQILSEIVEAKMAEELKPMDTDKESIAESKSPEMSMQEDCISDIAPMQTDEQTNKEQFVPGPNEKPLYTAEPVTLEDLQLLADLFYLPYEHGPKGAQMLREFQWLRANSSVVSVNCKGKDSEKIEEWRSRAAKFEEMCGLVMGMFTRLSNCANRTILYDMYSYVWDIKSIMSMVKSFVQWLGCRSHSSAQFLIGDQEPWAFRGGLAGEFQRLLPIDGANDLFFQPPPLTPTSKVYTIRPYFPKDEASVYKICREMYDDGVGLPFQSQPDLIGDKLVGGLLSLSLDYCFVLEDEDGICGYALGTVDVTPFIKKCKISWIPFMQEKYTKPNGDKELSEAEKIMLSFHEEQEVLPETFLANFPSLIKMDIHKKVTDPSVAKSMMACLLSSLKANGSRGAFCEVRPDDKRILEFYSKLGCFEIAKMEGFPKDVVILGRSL
Nature of the assay: OGA Enzyme Inhibition Biochemical Assay. The following applies: 1 nM OGA, 100 μM 4-MUGlcNAc (Km), pH 6.4, 90 minutes at room temperature, 10-point dose-response from 20 μM. The procedure:
OGA Enzyme Inhibition Biochemical Assay
Recombinant full length human OGA enzyme was purchased from Origene. 4-MUGlCNAc substrate was purchased from Sigma. All other reagents were purchased from Sigma or Fisher. Assay buffer consists of the McIlvaine buffer system, pH 6.4 (0.2M Na2HPO4 mixed with 0.1M citric acid) and 0.01% BSA. Reactions consist of 1 nM OGA, 100 μM 4-MUGlcNAc (Km), and compound in a final volume of 10 μl. Reactions were incubated for 90 minutes at room temperature and quenched with 40 μl of 3M glycine, pH 10 and read on a Perkin Elmer Envision plate reader (Ex: 355 nm/Em: 460 nm). Compounds were tested with a 10-point dose-response starting from 20 μM with a 4-fold dilution. Data was fit using GraphPad Prism using a 4-parameter fit with variable slope.

On to `CC(=O)Nc1ncc(CN2CC(Cc3ncc(F)cn3)C(F)(F)C2)s1` (stereo not shown) [Example 3-3, N-(5-((3,3-difluoro-4-((5-fluoropyrimidin-2-yl)methyl)pyrrolidin-1-yl)methyl)thiazol-2-yl)acetamide], for which the 50% inhibitory concentration (IC50) is 920 nM. For the compound `CC(=O)Nc1ncc(CN2CCC(Cc3cccc(F)c3)C2)s1` (stereo not shown) [Example 1-16, N-(5-((3-(3-fluorobenzyl)pyrrolidin-1-yl)methyl)thiazol-2-yl)acetamide], the IC50 came to 270 nM. As for `CC(=O)Nc1ncc(CN2CCC(C(C)c3ncc(F)cn3)C2)s1` (stereo not shown) [Example 2-36, N-(5-((3-(1-(5-fluoropyrimidin-2-yl)ethyl)pyrrolidin-1-yl)methyl)thiazol-2-yl)acetamide], the IC50 turned out to be 1 nM. `CC(=O)Nc1nnc(CN2CCC[C@H](Cc3ncc(F)cn3)C2)s1` (stereo in doubt) [Example 3-14, N-(5-((3-((5-fluoropyrimidin-2-yl)methyl)piperidin-1-yl)methyl)-1,3,4-thiadiazol-2-yl)acetamide]: the concentration for half-maximal inhibition (IC50) is 12 nM. In the case of `CC(=O)Nc1nc(F)c(CN2C[C@@H](Cc3ncc(F)cn3)C[C@@H]2C)s1` [Example 3-41, N-(4-fluoro-5-(((2S,4R)-4-((5-fluoropyrimidin-2-yl)methyl)-2-methylpyrrolidin-1-yl)methyl)thiazol-2-yl)acetamide] it was less than 1 nM.

On to `COc1nccc(CC2CCCN(Cc3cnc(NC(C)=O)s3)C2)c1C` (stereo not shown) [Example 2-3, N-(5-((3-((2-methoxy-3-methylpyridin-4-yl)methyl)piperidin-1-yl)methyl)thiazol-2-yl)acetamide], for which the concentration for half-maximal inhibition (IC50) was 2 nM. `CC(=O)Nc1ncc(CN2CCCC(Cc3ncnc4ccsc34)C2)s1` (stereo not shown) [Example 1-44, N-(5-((3-(thieno[3,2-d]pyrimidin-4-ylmethyl)piperidin-1-yl)methyl)thiazol-2-yl)acetamide]: the IC50 amounted to 2 nM. Regarding `CC(=O)Nc1ncc(CN2CCC[C@H](Cc3ncc(F)cn3)C2)s1` [Example 3-1, N-[5-[[(3R)-3-[(5-fluoropyrimidin-2-yl)methyl]-1-piperidyl]methyl]thiazol-2-yl]acetamide], the IC50 stood at 1 nM. With `CC(=O)Nc1nc(F)c(CN2C[C@@H](Cc3ncc(F)cn3)CC[C@@H]2C)s1` [Example 2-53, N-(4-fluoro-5-(((2S,5R)-5-((5-fluoropyrimidin-2-yl)methyl)-2-methylpiperidin-1-yl)methyl)thiazol-2-yl)acetamide], the IC50 amounted to 9.2 nM. Turning to `COc1cc(C[C@H]2C[C@H](C)N(Cc3sc(NC(C)=O)nc3F)C2)ncn1` [Example 3-46, N-(4-fluoro-5-(((2S,4R)-4-((6-methoxypyrimidin-4-yl)methyl)-2-methylpyrrolidin-1-yl)methyl)thiazol-2-yl)acetamide], the IC50 was less than 1 nM. Turning to `CC(=O)N(C)c1ncc(CN2CCC[C@H](Cc3ncc(F)cn3)C2)s1` [Example 3-16, N-[5-[[(3R)-3-[(5-fluoropyrimidin-2-yl)methyl]-1-piperidyl]methyl]thiazol-2-yl]-N-methyl-acetamide], the IC50 is 19 nM.

As for `CC(=O)Nc1nc(F)c(CN2CCC[C@H](Cc3ccnc(C)c3)C2)s1` [Example 3-18, (R)-N-(4-fluoro-5-((3-((2-methylpyridin-4-yl)methyl)piperidin-1-yl)methyl)thiazol-2-yl)acetamide], the IC50 is less than 1 nM.

As for `CC(=O)Nc1ncc(CN2CCC[C@H](Cc3ccc(C(F)F)nc3)C2)s1` [Example 2-8, (R)-N-(5-((3-((6-(difluoromethyl)pyridin-3-yl)methyl)piperidin-1-yl)methyl)thiazol-2-yl)acetamide], the IC50 turned out to be 18 nM.

As for `CC(=O)Nc1ncc(CN2CCCC(Cc3ccncc3)C2)s1` (stereo not shown) [Example 1-40, N-(5-((3-(pyridin-4-ylmethyl)piperidin-1-yl)methyl)thiazol-2-yl)acetamide], the IC50 is 4 nM. For `COc1nc(C[C@H]2CCCN(Cc3cnc(NC(C)=O)s3)C2)nc(C)c1F` [Example 3-8, (R)-N-(5-((3-((5-fluoro-4-methoxy-6-methylpyrimidin-2-yl)methyl)piperidin-1-yl)methyl)thiazol-2-yl)acetamide], the IC50 stood at 1 nM. Regarding `CC(=O)Nc1ncc(CN2C[C@@H](Cc3ncc(F)cn3)CC[C@H]2C)s1` (single isomer, unassigned) [Example 2-24], the half-maximal inhibitory concentration (IC50) came out at 1100 nM. In the case of `CC(=O)Nc1ncc(CN2CCC[C@H](Cc3ncc(C(F)F)cn3)C2)s1` [Example 3-6, (R)-N-(5-((3-((5-(difluoromethyl)pyrimidin-2-yl)methyl)piperidin-1-yl)methyl)thiazol-2-yl)acetamide] it was 2 nM; in that of `CC(=O)Nc1ncc(CN2CCCC(Cc3cncc(C(F)(F)F)n3)C2)s1` (stereo not shown) [Example 1-26, N-(5-((3-((6-(trifluoromethyl)pyrazin-2-yl)methyl)piperidin-1-yl)methyl)thiazol-2-yl)acetamide], 30 nM.

In the case of `CC(=O)Nc1ncc(CN2CCCC(Cc3nnc4ccccn34)C2)s1` (stereo not shown) [Example 4-23, N-(5-((3-([1,2,4]triazolo[4,3-a]pyridin-3-ylmethyl)piperidin-1-yl)methyl)thiazol-2-yl)acetamide], the IC50 came out at 27 nM.

With `CC(=O)N(C)c1nc(F)c(CN2CC[C@H](Cc3ncc(F)cn3)C2)s1` [Example 3-37, (R)-N-(4-fluoro-5-((3-((5-fluoropyrimidin-2-yl)methyl)pyrrolidin-1-yl)methyl)thiazol-2-yl)-N-methylacetamide], the half-maximal inhibitory concentration (IC50) is 79 nM.

For the compound `COc1ccc(CC2CCN(Cc3cnc(NC(C)=O)s3)C2)nc1` (stereo not shown) [Example 1-22, N-(5-((3-((5-methoxypyridin-2-yl)methyl)pyrrolidin-1-yl)methyl)thiazol-2-yl)acetamide], the concentration for half-maximal inhibition (IC50) stood at 100 nM. With `COc1cc(C[C@@H]2C[C@@H](C)N(Cc3sc(NC(C)=O)nc3F)C2)ncn1` [Example 3-43, N-(4-fluoro-5-(((2R,4S)-4-((6-methoxypyrimidin-4-yl)methyl)-2-methylpyrrolidin-1-yl)methyl)thiazol-2-yl)acetamide], the IC50 came to 87 nM. In the case of `COc1nc(C[C@H]2CCCN(Cc3cnc(NC(C)=O)s3)C2)ncc1F` [Example 2-6, (R)-N-(5-((3-((5-fluoro-4-methoxypyrimidin-2-yl)methyl)piperidin-1-yl)methyl)thiazol-2-yl)acetamide] it was 8 nM; in that of `CC(=O)Nc1ncc(CN2CC[C@H](C)[C@H](Cc3ncc(F)cn3)C2)s1` (single isomer, unassigned) [Example 2-39], 1 nM; in that of `CC(=O)Nc1ncc(CN2CCCC(Cn3cc(Br)cn3)C2)s1` (stereo not shown) [Example 4-9, N-(5-((3-((4-bromo-1H-pyrazol-1-yl)methyl)piperidin-1-yl)methyl)thiazol-2-yl)acetamide], 310 nM.

With `CC(=O)Nc1ncc(CN2C[C@H](Cc3ncc(F)cn3)C[C@H]2C)s1` (single isomer, unassigned) [Example 2-20], the IC50 is 1 nM. In the case of `CC(=O)Nc1nnc(CN2CC[C@H](Cc3cc(C)nc(C)c3)C2)s1` [Example 3-47, (S)—N-(5-((3-((2,6-dimethylpyridin-4-yl)methyl)pyrrolidin-1-yl)methyl)-1,3,4-thiadiazol-2-yl)acetamide], the IC50 stood at 130 nM. With `CC(=O)Nc1ncc(CN2CCCC(Cc3ccc(C)cn3)C2)s1` (stereo not shown) [Example 1-31, N-(5-((3-((5-methylpyridin-2-yl)methyl)piperidin-1-yl)methyl)thiazol-2-yl)acetamide] the figure was 5 nM.
